Measurements reported in patent publication US9365522B2, “Pyrazole amide derivative” (AMGEN INC., priority 2015, dated 2016).

Target: T1, ligand binding domain of human ROR gamma (Homo sapiens, UniProt P51449)
T1 construct: NM_001001523; expressed in transfected cells; host or cells: HEK293T
T1 sequence (P51449 247-497 isoform P51449-2): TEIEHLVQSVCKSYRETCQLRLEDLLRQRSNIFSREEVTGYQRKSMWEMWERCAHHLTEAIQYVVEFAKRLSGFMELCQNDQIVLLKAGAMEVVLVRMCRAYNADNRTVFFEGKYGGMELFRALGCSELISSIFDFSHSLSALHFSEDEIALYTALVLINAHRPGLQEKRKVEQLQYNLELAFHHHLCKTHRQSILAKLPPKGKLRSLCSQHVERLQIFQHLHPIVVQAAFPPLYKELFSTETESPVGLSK
Assay: ROR gamma reporter gene assay (GAL4-RORγ LBD luciferase, Dual-Glo)
Format: cell-based
Conditions: HEK293T cells transfected with pM-ROR gamma, 8 concentrations 3.5 nM to 10.5 μM, 24 h incubation; read-out: result (pIC50, inhibition of RORγ transcriptional activity) (converted)
In short: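 HEK293T cells were co-transfected with GAL4 DBD fused to human RORγ LBD (aa 247-497), a 5×UAS firefly luciferase reporter and CMV-driven renilla luciferase, in medium with 10% charcoal-stripped FBS.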

## CC1(C)CCC(N(CC(=O)c2c(Cl)cc(F)cc2Cl)C(=O)c2cnn([C@H]3CC[C@](C)(C(=O)O)CC3)c2Cl)CC1 [Example 345, trans-4-(5-chloro-4-((2-(2,6-dichloro-4-fluorophenyl)-2-oxoethyl)-(4,4-dimethylcyclohexyl)carbamoyl)pyrazol-1-yl)-1-methylcyclohexane-1-carboxylic acid]
  IC50: 26300 pM

## CC(C)[C@H]1C[C@@H]1N(CC(=O)c1c(Cl)cncc1Cl)C(=O)c1cnn([C@H]2CC[C@](C)(C(=O)O)CC2)c1C(F)(F)F [Example 346, trans-4-(4-((2-(3,5-dichloropyridin-4-yl)-2-oxoethyl)-((1S,2R)-2-propan-2-ylcyclopropyl)carbamoyl)-5-(trifluoromethyl)pyrazol-1-yl)-1-methylcyclohexane-1-carboxylic acid]
  IC50: 110000 pM

## CC(C)c1c(C(=O)N(CC(=O)c2c(Cl)cc(F)cc2Cl)C2CCC(C)(C)CC2)cnn1[C@H]1CC[C@](C)(C(=O)O)CC1 [Example 347, trans-4-(4-((2-(2,6-dichloro-4-fluorophenyl)-2-oxoethyl)-(4,4-dimethylcyclohexyl)carbamoyl)-5-propan-2-ylpyrazol-1-yl)-1-methylcyclohexane-1-carboxylic acid]
  IC50: 871000 pM

## CC(C)(C)SCCN(CC(=O)c1c(Cl)cc(F)cc1Cl)C(=O)c1cnn([C@H]2CC[C@](C)(C(=O)O)CC2)c1C(F)(F)F [Example 348, trans-4-(4-(2-tert-butylsulfanylethyl-(2-(2,6-dichloro-4-fluorophenyl)-2-oxoethyl)carbamoyl)-5-(trifluoromethyl)pyrazol-1-yl)-1-methylcyclohexane-1-carboxylic acid]
  IC50: 155000 pM

## CC1(C)CCC(N(CCc2c[nH]c3cccc(Cl)c23)C(=O)c2cnn([C@H]3CC[C@](C)(C(=O)O)CC3)c2C(F)(F)F)CC1 [Example 349, trans-4-(4-(2-(4-chloro-1H-indol-3-yl)ethyl-(4,4-dimethylcyclohexyl)carbamoyl)-5-(trifluoromethyl)pyrazol-1-yl)-1-methylcyclohexane-1-carboxylic acid]
  IC50: 79400 pM

## CC(C)(C)S(=O)(=O)CCN(CC(=O)c1c(Cl)cc(F)cc1Cl)C(=O)c1cnn([C@H]2CC[C@](C)(C(=O)O)CC2)c1C(F)(F)F [Example 350, trans-4-(4-(2-tert-butylsulfonylethyl-(2-(2,6-dichloro-4-fluorophenyl)-2-oxoethyl)carbamoyl)-5-(trifluoromethyl)pyrazol-1-yl)-1-methylcyclohexane-1-carboxylic acid]
  IC50: 1.15e+06 pM

## CC(C)(C)[S+]([O-])CCN(CC(=O)c1c(Cl)cc(F)cc1Cl)C(=O)c1cnn([C@H]2CC[C@](C)(C(=O)O)CC2)c1C(F)(F)F (stereo partly drawn) [Example 351, trans-4-(4-(2-tert-butylsulfinylethyl-(2-(2,6-dichloro-4-fluorophenyl)-2-oxoethyl)carbamoyl)-5-(trifluoromethyl)pyrazol-1-yl)-1-methylcyclohexane-1-carboxylic acid]
  IC50: 7.24e+06 pM

## CC(C)(C)CN(CC(=O)c1c[nH]c2cccc(Cl)c12)C(=O)c1cnn([C@H]2CC[C@](C)(C(=O)O)CC2)c1C(F)(F)F [Example 352, trans-4-(4-((2-(4-chloro-1H-indol-3-yl)-2-oxoethyl)-(2,2-dimethylpropyl)carbamoyl)-5-(trifluoromethyl)pyrazol-1-yl)-1-methylcyclohexane-1-carboxylic acid]
  IC50: 4.07e+06 pM

## C[C@]1(C(=O)O)CC[C@H](n2ncc(C(=O)N(CCN3CCCC(F)C3)CC(=O)c3c(Cl)cc(F)cc3Cl)c2C(F)(F)F)CC1 (stereo partly drawn) [Example 353, trans-4-(4-((2-(2,6-dichloro-4-fluorophenyl)-2-oxoethyl)-(2-(3-fluoropiperidin-1-yl)ethyl)carbamoyl)-5-(trifluoromethyl)pyrazol-1-yl)-1-methylcyclohexane-1-carboxylic acid]
  IC50: 178000 pM

## CC1(C)[C@@H]2C[C@H](N(C[C@H](O)c3c(F)cccc3Cl)C(=O)c3cnn([C@H]4CC[C@](C)(C(=O)O)CC4)c3C(F)(F)F)C[C@@H]21 [Example 354, trans-4-(4-((2-(2-chloro-6-fluorophenyl)-2-hydroxyethyl)((1R,3r,5S)-6,6-dimethylbicyclo[3.1.0]hexan-3-yl)carbamoyl)-5-(trifluoromethyl)-1H-pyrazol-1-yl)-1-methylcyclohexanecarboxylic acid]
  IC50: 513000 pM

## CC1(C)[C@@H]2C[C@H](N(C[C@@H](O)c3c(F)cccc3Cl)C(=O)c3cnn([C@H]4CC[C@](C)(C(=O)O)CC4)c3C(F)(F)F)C[C@@H]21 [Example 355, trans-4-(4-((2-(2-chloro-6-fluorophenyl)-2-hydroxyethyl)((1R,3r,5S)-6,6-dimethylbicyclo[3.1.0]hexan-3-yl)carbamoyl)-5-(trifluoromethyl)-1H-pyrazol-1-yl)-1-methylcyclohexanecarboxylic acid]
  IC50: 21900 pM

## COc1cccc(Cl)c1[C@@H](O)CN(CC(C)(C)C)C(=O)c1cnn([C@H]2CC[C@](C)(C(=O)O)CC2)c1C(F)(F)F [Example 356, trans-4-(4-(((2R)-2-(2-chloro-6-methoxyphenyl)-2-hydroxyethyl)-(2,2-dimethylpropyl)carbamoyl)-5-(trifluoromethyl)pyrazol-1-yl)-1-methylcyclohexane-1-carboxylic acid]
  IC50: 102000 pM

## COc1cccc(Cl)c1[C@H](O)CN(CC(C)(C)C)C(=O)c1cnn([C@H]2CC[C@](C)(C(=O)O)CC2)c1C(F)(F)F [Example 357, trans-4-(4-(((2S)-2-(2-chloro-6-methoxyphenyl)-2-hydroxyethyl)-(2,2-dimethylpropyl)carbamoyl)-5-(trifluoromethyl)pyrazol-1-yl)-1-methylcyclohexane-1-carboxylic acid]
  IC50: ≥ 1e+07 pM

## CC(C)(C)CN(CC(=O)c1c(Cl)cccc1Cl)C(=O)c1cnn([C@H]2CC[C@](C)(C(=O)O)CC2)c1Cl [Example 358, trans-4-(5-chloro-4-((2-(2,6-dichlorophenyl)-2-oxoethyl)-(2,2-dimethylpropyl)carbamoyl)pyrazol-1-yl)-1-methylcyclohexane-1-carboxylic acid]
  IC50: 61700 pM

## Cc1cc(Cl)c(C(=O)CN(CC(C)(C)C)C(=O)c2cnn([C@H]3CC[C@](C)(C(=O)O)CC3)c2Cl)c(Cl)c1 [Example 359, trans-4-(5-chloro-4-((2-(2,6-dichloro-4-methylphenyl)-2-oxoethyl)-(2,2-dimethylpropyl)carbarnoyl)pyrazol-1-yl)-1-methylcyclohexane-1-carboxylic acid]
  IC50: 26300 pM

## Cc1[nH]c2cccc(Cl)c2c1CCN(CC(C)(C)C)C(=O)c1cnn([C@H]2CC[C@](C)(C(=O)O)CC2)c1C(F)(F)F [Example 360, trans-4-(4-(2-(4-chloro-2-methyl-1H-indol-3-yl)ethyl-(2,2-dimethylpropyl)carbamoyl)-5-(trifluoromethyl)pyrazol-1-yl)-1-methylcyclohexane-1-carboxylic acid]
  IC50: 178000 pM

## CC1(C)[C@@H]2C[C@H](N(CC(=O)c3c(Cl)cccc3Cl)C(=O)c3cnn([C@H]4CC[C@](C)(C(=O)O)CC4)c3Cl)C[C@@H]21 [Example 363, trans-4-(5-chloro-4-((2-(2,6-dichlorophenyl)-2-oxoethyl)((1R,3r,5S)-6,6-dimethylbicyclo[3.1.0]hexan-3-yl)carbamoyl)-1H-pyrazol-yl)-1-methylcyclohexanecarboxylic acid]
  IC50: 13200 pM

## Cc1c(C(=O)N(CC(=O)c2c(Cl)cccc2Cl)[C@H]2C[C@@H]3[C@H](C2)C3(C)C)cnn1[C@H]1CC[C@](C)(C(=O)O)CC1 [Example 364, trans-4-(4-((2-(2,6-dichlorophenyl)-2-oxoethyl)((1R,3r,5S)-6,6-dimethylbicyclo[3.1.0]hexan-3-yl)carbamoyl)-5-methyl-1H-pyrazol-1-yl)-1-methylcyclohexanecarboxylic acid]
  IC50: 45700 pM

## Cc1cc(Cl)c(C(=O)CN(C(=O)c2cnn([C@H]3CC[C@](C)(C(=O)O)CC3)c2C)[C@H]2C[C@@H]3[C@H](C2)C3(C)C)c(Cl)c1 [Example 365, trans-4-(4-((2-(2,6-dichloro-4-methylphenyl)-2-oxoethyl)((1R,3r,5S)-6,6-dimethylbicyclo[3.1.0]hexan-3-yl)carbamoyl)-5-methyl-1H-pyrazol-1-yl)-1-methylcyclohexanecarboxylic acid]
  IC50: 30900 pM

## Cc1cc(Cl)c(C(=O)CN(C(=O)c2cnn([C@H]3CC[C@](C)(C(=O)O)CC3)c2Cl)[C@H]2C[C@@H]3[C@H](C2)C3(C)C)c(Cl)c1 [Example 366, trans-4-(5-chloro-4-((2-(2,6-dichloro-4-methylphenyl)-2-oxoethyl)((1R,3r,5S)-6,6-dimethylbicyclo[3.1.0]hexan-3-yl)carbamoyl)-1H-pyrazol-1-yl)-1-methylcyclohexanecarboxylic acid]
  IC50: 15100 pM

## CC1(C)[C@@H]2C[C@H](N(CC(=O)c3c(Cl)cncc3Cl)C(=O)c3cnn([C@H]4CC[C@](C)(C(=O)O)CC4)c3Cl)C[C@@H]21 [Example 367, trans-4-(5-chloro-4-((2-(3,5-dichloropyridin-4-yl)-2-oxoethyl)((1R,3r,5S)-6,6-dimethylbicyclo[3.1.0]hexan-3-yl)carbamoyl)-1H-pyrazol-1-yl)-1-methylcyclohexanecarboxylic acid]
  IC50: 30200 pM
